This is an account of results in patent publication US20210386762A1, “THE APPLICATION OF URSODEOXYCHOLIC ACID OR ITS PHARMACEUTICAL SALT IN THE PREPARATION OF AN ANTITUMOR DRUG AND AN ANTITUMOR DRUG” (ZHEJIANG UNIVERSITY, priority 2018, published 2021).

Assay [1] deals with melanoma cell line B16. The assay can be described thus: Melanoma tumor-bearing mouse model (C57BL/6). It counts as in vivo. The text has this:
(§1) Female C57BL/6 (6-8 weeks old) mice were purchased from Shanghai SLAC Laboratory Animal Co., Ltd.; humanized PD-1 transgenic mice were purchased from Nanjing Biomedical Research Institute of Nanjing University; and all mice were raised in SPF facilities. Mouse colon cancer cell line MC38, lung cancer cell line LLC-luci and melanoma cell line B16 were all purchased from American Type Culture Collection (ATCC). Since Treg cells can inhibit extensive antitumor immune response while promoting angiogenesis in the tumor microenvironment, to explore the in vivo influence of ursodeoxycholic acid on Treg cells, tumor-bearing models are established using mouse colon cancer cell line MC38, lung cancer cell line LLC-luci and melanoma cell line B16, with female SPF-grade C57BL/6 as the experiment subject. For better internal absorption of ursodeoxycholic acid, the above-mentioned ursodeoxycholic acid is replaced with sodium ursodeoxycholate (SANTA CRUZ BIOTECHNOLOGY, #2898-95-5). The control group and the experimental group both received injection of ddH2O and URSO (30 mg/kg) every day, with tumor size observed and recorded. […] Two weeks later, separate the tumor-infiltrating lymphocytes for analysis by flow cytometry. […]

Assay [2] deals with lung cancer cell line LLC-luci. In words: Lung cancer tumor-bearing mouse model (C57BL/6). It counts as in vivo.
Description: as §1

The test system of assay [3] is colon cancer cell line MC38. The assay can be described thus: Colon cancer tumor-bearing mouse model (C57BL/6). Format: in vivo.
Description: as §1

The test system of assay [4] is colon cancer cell line MC38. The assay can be described thus: Combination with anti-PD-1 antibody, colon cancer model in humanized PD-1 transgenic mice. Format: in vivo, mouse. The conditions noted are these: MC38 subcutaneous, SHR-1210 10 mg/kg every two days, URSO 30 mg/kg every other day, vs water and humanized IgG4 (FIG. 5). The text has this:
(§2) Female C57BL/6 (6-8 weeks old) mice were purchased from Shanghai SLAC Laboratory Animal Co., Ltd.; humanized PD-1 transgenic mice were purchased from Nanjing Biomedical Research Institute of Nanjing University; and all mice were raised in SPF facilities. Mouse colon cancer cell line MC38, lung cancer cell line LLC-luci and melanoma cell line B16 were all purchased from American Type Culture Collection (ATCC).
(§3) To verify whether the combined use of ursodeoxycholic acid and anti-PD-1 antibody can improve antitumor effect, colon cancer cell line MC38, melanoma cell line B16 and lung cancer cell line LLC are inoculated subcutaneously into humanized PD-1 transgenic mice, which were randomly divided into four groups when tumor volume reaches 100 mm^3. Treatment groups were treated with SHR-1210, URSO or SHR-1210 in combination with URSO, while the control groups were injected with water and humanized IgG4 (an isotype control for SHRR-1210). SHR-1210 was used every two days at a dosage of 10 mg/kg, while URSO was used every other day at 30 mg/kg, with the volume of tumor recorded each time.

For assay [5], the system named is lung cancer cell line LLC. In words: Combination with anti-PD-1 antibody, lung cancer model in humanized PD-1 transgenic mice. It counts as in vivo, mouse. Conditions: LLC subcutaneous, SHR-1210 10 mg/kg every two days, URSO 30 mg/kg every other day, vs water and humanized IgG4 (FIG. 6).
Description: as §2, §3

The subject of assay [6] is melanoma cell line B16. In words: Combination with anti-PD-1 antibody, melanoma model in humanized PD-1 transgenic mice. Format: in vivo, mouse. Conditions: B16 subcutaneous, SHR-1210 10 mg/kg every two days, URSO 30 mg/kg every other day, vs water and humanized IgG4 (FIG. 7).
Description: as §2, §3

Assay [7] relates to Treg cell differentiation (mouse naïve CD4+ T cells). In words: In vitro Treg cell differentiation of mouse naïve CD4+ T cells, flow cytometry. Format: cell-based. The conditions noted are these: 50 μM vs DMSO, anti-CD3/anti-CD28, flow cytometry on day 4 (FIG. 1). The text has this:
Treg cell surface can express CD4 and CD25 molecules. In addition, it is characterized by its high expression of transcription factor Foxp3. Based on the characteristic above, flow cytometry is adopted to explore the in vitro influence of ursodeoxycholic acid on Treg cell differentiation. Detailed procedures are as follows: T cell sorting: Mouse T cells were sorted by immunomagnetic beads methods. The mice were killed by cervical dislocation, spleens and lymph nodes were taken under aseptic conditions, ground and put through a sieve, centrifuged at 400 g for 5 min, and cells were resuspended with sort buffer. The total cells were counted with 3% glacial acetic acid, and proceeded strictly following the instructions of the sorting kit. CD4 negative selection kit (EasySep™ Mouse CD4+ T Cell Isolation Kit, #19852A) and Biotin sorting kit (EasySep™ Mouse Biotin Positive Selection Kit, #18556) were used in combination for sorting naïve CD4+ T cells (CD4-positive naïve T cells). […] After sorting, when the CD4+CD62L+ purity detected by flow cytometry is greater than 95%, cells were used for further experiments. […] DMSO or ursodeoxycholic acid U5127 (SIGMA-ALDRICH, #128-13-2) was added with a concentration of 50 μM respectively, and the differentiation of Treg cells were detected by flow cytometry on day 4. […]
(Flow cytometry measures light scatter and fluorescence of single cells or particles in a stream.)

The subject of assay [8] is Treg cell differentiation (human naïve CD4+ T cells). In words: In vitro Treg cell differentiation of human naïve CD4+ T cells, flow cytometry. Format: cell-based. The conditions noted are these: human naïve CD4+ T cells from healthy volunteers, CD3/CD28 activation, flow cytometry on day 4 (FIG. 8). As to the method:
To investigate the influence of ursodeoxycholic acid on humanized Treg cell differentiation, whole blood of volunteers were collected (ethics approval: approved by Medical Ethics Committee of Zhejiang University School of Medicine, Shen Lun No. 2019-013; five healthy volunteers, 10 ml peripheral venous blood each, collected by Zhejiang Medial & Health Group Hangzhou Hospital). naïve CD4+ T cells were sorted. Detailed procedures are as follows: 1. Separation of peripheral blood mononuclear cells: • (1) Fresh anticoagulant whole blood (EDTA, sodium citrate or heparin) was taken. Whole blood was diluted with isotonic solution (PBS or normal saline) of equal volume. • (2) A certain volume of separating medium (VESTA, #7111011) was added into a centrifuge tube, diluted blood sample was spread evenly on the surface of separating medium, and maintained a clear interface between two liquid surfaces. […] Sorting of human naïve CD4+ T cells: • (1) With Human naïve CD4+ T Cell Kit (STEMCELL, #19155) and the standard kit method adopted, naïve CD4+ T cells were sorted from human peripheral blood mononuclear cells, and plating was conducted according to the method in Example 1. • (2) Human T-Activator CD3/CD28 was added for T Cell Expansion and Activation (Gibco, #11161D). • (3) On day 4, Treg cell differentiation was detected by flow cytometry.

For the molecule `C[C@H](CCC(=O)[O-])[C@H]1CC[C@H]2[C@@H]3[C@@H](O)C[C@@H]4C[C@H](O)CC[C@]4(C)[C@H]3CC[C@]12C.[Na+]` [URSO, sodium ursodeoxycholate], the tumor volume result in the assay on melanoma cell line B16 [1] (C57BL/6 mice, 30 mg/kg injection every day, vs ddH2O control (FIG. 2A)) is given as “obviously smaller in volume”; in assay [2] (C57BL/6 mice, 30 mg/kg injection every day, vs ddH2O control (FIG. 3A)), “obviously smaller in volume”; in assay [3] (C57BL/6 mice, 30 mg/kg injection every day, vs ddH2O control (FIG. 4A)) it was “obviously smaller in volume”. The “tumor growth (tumor volume)” value (in assay [4]; in assay [5]; in the assay on melanoma cell line B16 [6]) was “significantly inhibited tumor growth” in each case.

For `C[C@H](CCC(=O)O)[C@H]1CC[C@H]2[C@@H]3[C@@H](O)C[C@@H]4C[C@H](O)CC[C@]4(C)[C@H]3CC[C@]12C` [ursodeoxycholic acid], the “proportion of endogenous Treg cells” value in assay [7] is “significantly reduced”. Besides, the “proportion of Treg cells in tumor infiltrating lymphocytes” value in the assay on melanoma cell line B16 [1] (two weeks of treatment, flow cytometry (FIG. 2B)) was “reduced”; in assay [2] (two weeks of treatment, flow cytometry (FIG. 3B)) it was “reduced”; in assay [3] (two weeks of treatment, flow cytometry (FIG. 4B)), “reduced”. Further, the “differentiation of humanized endogenous Treg cells” value in assay [8] is recorded as “reduced”.

B1: SHR-1210: humanized anti-PD-1 antibody produced by Hengrui Medicine (antibody, chains of the INN, looked up, V domains shown)
VH: EVQLVESGGGLVQPGGSLRLSCAASGFTFSSYMMSWVRQAPGKGLEWVATISGGGANTYYPDSVKGRFTISRDNAKNSLYLQMNSLRAEDTAVYYCARQLYYFDYWGQGTTVTVSS
VL: DIQMTQSPSSLSASVGDRVTITCLASQTIGTWLTWYQQKPGKAPKLLIYTATSLADGVPSRFSGSGSGTDFTLTISSLQPEDFATYYCQQVYSIPWTFGGGTKVEIK
In the case of B1, the “tumor growth (tumor volume)” value (in assay [4]; in assay [5]; with melanoma cell line B16 [6]) was “significantly inhibited tumor growth” each time.
